From ChEMBL document CHEMBL3046559, “Sterile oat (Avena sterilis L.) cross-resistance profile to ACCase-inhibiting herbicides in Greece” (2012)

What was measured:
Type in all cases: functional
Avena sterilis [1] = assay: Herbicidal activity against Avena sterilis accession P15 assessed as weed survival at 1 times field recommended herbicide dose
Avena sterilis [2] = assay: Herbicidal activity against Avena sterilis accession P09 assessed as weed survival at 1 times field recommended herbicide dose
Avena sterilis [3] = assay: Herbicidal activity against Avena sterilis accession P07 assessed as weed survival at 1 times field recommended herbicide dose
Avena sterilis [4] = assay: Herbicidal activity against Avena sterilis accession P21S assessed as weed survival at 1/32 times field recommended herbicide dose
Avena sterilis [5] = assay: Herbicidal activity against Avena sterilis accession P19S assessed as weed survival at 1/32 times field recommended herbicide dose
Avena sterilis [6] = assay: Herbicidal activity against Avena sterilis accession P13S assessed as weed survival at 1/32 times field recommended herbicide dose
Avena sterilis [7] = assay: Herbicidal activity against Avena sterilis accession P10S assessed as weed survival at 1/32 times field recommended herbicide dose
Avena sterilis [8] = assay: Herbicidal activity against Avena sterilis accession P22 assessed as weed survival at 32 times field recommended herbicide dose
Avena sterilis [9] = assay: Herbicidal activity against Avena sterilis accession P05 assessed as weed survival at 1 times field recommended herbicide dose
Avena sterilis [10] = assay: Herbicidal activity against Avena sterilis accession P02 assessed as weed survival at 1 times field recommended herbicide dose
Avena sterilis [11] = assay: Herbicidal activity against Avena sterilis accession P19S assessed as induction of weed mortality
Avena sterilis [12] = assay: Herbicidal activity against Avena sterilis accession P10S assessed as induction of weed mortality
Avena sterilis [13] = assay: Herbicidal activity against Avena sterilis accession P22 assessed as induction of weed mortality
Avena sterilis [14] = assay: Herbicidal activity against Avena sterilis accession P20 assessed as induction of weed mortality
Avena sterilis [15] = assay: Herbicidal activity against Avena sterilis accession P12 assessed as induction of weed mortality
Avena sterilis [16] = assay: Herbicidal activity against Avena sterilis accession P08 assessed as induction of weed mortality
Avena sterilis [17] = assay: Herbicidal activity against Avena sterilis accession P07 assessed as induction of weed mortality
Avena sterilis [18] = assay: Herbicidal activity against Avena sterilis accession P03 assessed as induction of weed mortality
Avena sterilis [19] = assay: Herbicidal activity against Avena sterilis accession P01 assessed as induction of weed mortality
Avena sterilis [20] = assay: Herbicidal activity against Avena sterilis accession P17 assessed as weed survival at 8 times field recommended herbicide dose
Avena sterilis [21] = assay: Herbicidal activity against Avena sterilis accession P15 assessed as weed survival at 8 times field recommended herbicide dose
Avena sterilis [22] = assay: Herbicidal activity against Avena sterilis accession P12 assessed as weed survival at 8 times field recommended herbicide dose
Avena sterilis [23] = assay: Herbicidal activity against Avena sterilis accession P16 assessed as weed survival at 32 times field recommended herbicide dose
Avena sterilis [24] = assay: Herbicidal activity against Avena sterilis accession P14 assessed as weed survival at 32 times field recommended herbicide dose
Avena sterilis [25] = assay: Herbicidal activity against Avena sterilis accession P12 assessed as weed survival at 32 times field recommended herbicide dose
Avena sterilis [26] = assay: Herbicidal activity against Avena sterilis accession P09 assessed as weed survival at 32 times field recommended herbicide dose
Avena sterilis [27] = assay: Herbicidal activity against Avena sterilis accession P08 assessed as weed survival at 32 times field recommended herbicide dose
Avena sterilis [28] = assay: Herbicidal activity against Avena sterilis accession P02 assessed as weed survival at 32 times field recommended herbicide dose
Avena sterilis [29] = assay: Herbicidal activity against Avena sterilis accession P22 assessed as weed survival at 16 times field recommended herbicide dose
Avena sterilis [30] = assay: Herbicidal activity against Avena sterilis accession P15 assessed as weed survival at 16 times field recommended herbicide dose
Avena sterilis [31] = assay: Herbicidal activity against Avena sterilis accession P14 assessed as weed survival at 16 times field recommended herbicide dose
Avena sterilis [32] = assay: Herbicidal activity against Avena sterilis accession P12 assessed as weed survival at 16 times field recommended herbicide dose
Avena sterilis [33] = assay: Herbicidal activity against Avena sterilis accession P09 assessed as weed survival at 16 times field recommended herbicide dose
Avena sterilis [34] = assay: Herbicidal activity against Avena sterilis accession P07 assessed as weed survival at 16 times field recommended herbicide dose
Avena sterilis [35] = assay: Herbicidal activity against Avena sterilis accession P05 assessed as weed survival at 16 times field recommended herbicide dose
Avena sterilis [36] = assay: Herbicidal activity against Avena sterilis accession P04 assessed as weed survival at 16 times field recommended herbicide dose
Avena sterilis [37] = assay: Herbicidal activity against Avena sterilis accession P01 assessed as weed survival at 16 times field recommended herbicide dose
Avena sterilis [38] = assay: Herbicidal activity against Avena sterilis accession P13S assessed as weed survival at 1/8 times field recommended herbicide dose
Avena sterilis [39] = assay: Herbicidal activity against Avena sterilis accession P10S assessed as weed survival at 1/8 times field recommended herbicide dose
Avena sterilis [40] = assay: Herbicidal activity against Avena sterilis accession P06S assessed as weed survival at 1/8 times field recommended herbicide dose
Avena sterilis [41] = assay: Herbicidal activity against Avena sterilis accession P18 assessed as weed survival at 8 times field recommended herbicide dose
Avena sterilis [42] = assay: Herbicidal activity against Avena sterilis accession P11 assessed as weed survival at 8 times field recommended herbicide dose
Avena sterilis [43] = assay: Herbicidal activity against Avena sterilis accession P08 assessed as weed survival at 8 times field recommended herbicide dose
Avena sterilis [44] = assay: Herbicidal activity against Avena sterilis accession P22 assessed as weed survival at 4 times field recommended herbicide dose
Avena sterilis [45] = assay: Herbicidal activity against Avena sterilis accession P17 assessed as weed survival at 4 times field recommended herbicide dose
Avena sterilis [46] = assay: Herbicidal activity against Avena sterilis accession P15 assessed as weed survival at 4 times field recommended herbicide dose
Avena sterilis [47] = assay: Herbicidal activity against Avena sterilis accession P14 assessed as weed survival at 4 times field recommended herbicide dose
Avena sterilis [48] = assay: Herbicidal activity against Avena sterilis accession P11 assessed as weed survival at 4 times field recommended herbicide dose
Avena sterilis [49] = assay: Herbicidal activity against Avena sterilis accession P09 assessed as weed survival at 4 times field recommended herbicide dose
Avena sterilis [50] = assay: Herbicidal activity against Avena sterilis accession P05 assessed as weed survival at 4 times field recommended herbicide dose
Avena sterilis [51] = assay: Herbicidal activity against Avena sterilis accession P06S assessed as weed survival at 1 times field recommended herbicide dose
Avena sterilis [52] = assay: Herbicidal activity against Avena sterilis accession P20 assessed as weed survival at 1 times field recommended herbicide dose
Avena sterilis [53] = assay: Herbicidal activity against Avena sterilis accession P03 assessed as weed survival at 4 times field recommended herbicide dose
Avena sterilis [54] = assay: Herbicidal activity against Avena sterilis accession P02 assessed as weed survival at 4 times field recommended herbicide dose
Avena sterilis [55] = assay: Herbicidal activity against Avena sterilis accession P01 assessed as weed survival at 4 times field recommended herbicide dose
Avena sterilis [56] = assay: Herbicidal activity against Avena sterilis accession P21S assessed as weed survival at 1 times field recommended herbicide dose
Avena sterilis [57] = assay: Herbicidal activity against Avena sterilis accession P13S assessed as weed survival at 1 times field recommended herbicide dose
Avena sterilis [58] = assay: Herbicidal activity against Avena sterilis accession P22 assessed as weed survival at 1 times field recommended herbicide dose

C#CCOC(=O)[C@@H](C)Oc1ccc(Oc2ncc(Cl)cc2F)cc1 [CLODINAFOP PROPARGYL]
Survival (Avena sterilis [1]): 100% | Survival (Avena sterilis [2]): 63% | Survival (Avena sterilis [3]): 13% | Survival (Avena sterilis [4]): 97% | Survival (Avena sterilis [5]): 100% | Survival (Avena sterilis [6]): 80% | Survival (Avena sterilis [7]): 83% | Survival (Avena sterilis [8]): 0% | Survival (Avena sterilis [9]): 90% | Survival (Avena sterilis [10]): 97% | GR50 (Avena sterilis [11]): 29 gAi/ha | GR50 (Avena sterilis [12]): 8 gAi/ha | GR50 (Avena sterilis [13]): 122 gAi/ha | GR50 (Avena sterilis [14]): 508 gAi/ha | GR50 (Avena sterilis [15]): >1312 gAi/ha | GR50 (Avena sterilis [16]): >1312 gAi/ha | GR50 (Avena sterilis [17]): <41 gAi/ha | GR50 (Avena sterilis [18]): >1312 gAi/ha | GR50 (Avena sterilis [19]): 1053 gAi/ha | Survival (Avena sterilis [20]): 40% | Survival (Avena sterilis [21]): 100% | Survival (Avena sterilis [22]): 100% | Survival (Avena sterilis [23]): 0% | Survival (Avena sterilis [24]): 43% | Survival (Avena sterilis [25]): 83% | Survival (Avena sterilis [26]): 0% | Survival (Avena sterilis [27]): 67% | Survival (Avena sterilis [28]): 87% | Survival (Avena sterilis [29]): 0% | Survival (Avena sterilis [30]): 97% | Survival (Avena sterilis [31]): 77% | Survival (Avena sterilis [32]): 83% | Survival (Avena sterilis [33]): 0% | Survival (Avena sterilis [34]): 0% | Survival (Avena sterilis [35]): 13% | Survival (Avena sterilis [36]): 73% | Survival (Avena sterilis [37]): 70% | Survival (Avena sterilis [38]): 63% | Survival (Avena sterilis [39]): 77% | Survival (Avena sterilis [40]): 80% | Survival (Avena sterilis [41]): 73% | Survival (Avena sterilis [42]): 100% | Survival (Avena sterilis [43]): 93% | Survival (Avena sterilis [44]): 43% | Survival (Avena sterilis [45]): 67% | Survival (Avena sterilis [46]): 100% | Survival (Avena sterilis [47]): 87% | Survival (Avena sterilis [48]): 97% | Survival (Avena sterilis [49]): 20% | Survival (Avena sterilis [50]): 47% | Survival (Avena sterilis [51]): 0% | Survival (Avena sterilis [52]): 93% | Survival (Avena sterilis [53]): 100% | Survival (Avena sterilis [54]): 100% | Survival (Avena sterilis [55]): 87% | Survival (Avena sterilis [56]): 0% | Survival (Avena sterilis [57]): 0% | Survival (Avena sterilis [58]): 90%

COC(=O)C(C)Oc1ccc(Oc2ccc(Cl)cc2Cl)cc1 (stereo unspecified) [DICLOFOP-METHYL]
Survival (Avena sterilis [1]): 100% | Survival (Avena sterilis [2]): 100% | Survival (Avena sterilis [3]): 100% | Survival (Avena sterilis [4]): 100% | Survival (Avena sterilis [5]): 100% | Survival (Avena sterilis [6]): 100% | Survival (Avena sterilis [7]): 100% | Survival (Avena sterilis [8]): 20% | Survival (Avena sterilis [9]): 100% | Survival (Avena sterilis [10]): 100% | GR50 (Avena sterilis [11]): 451 gAi/ha | GR50 (Avena sterilis [12]): 506 gAi/ha | GR50 (Avena sterilis [13]): 3989 gAi/ha | GR50 (Avena sterilis [14]): >22740 gAi/ha | GR50 (Avena sterilis [15]): >22740 gAi/ha | GR50 (Avena sterilis [16]): 11354 gAi/ha | GR50 (Avena sterilis [17]): 3737 gAi/ha | GR50 (Avena sterilis [18]): 13359 gAi/ha | GR50 (Avena sterilis [19]): 21999 gAi/ha | Survival (Avena sterilis [20]): 60% | Survival (Avena sterilis [21]): 80% | Survival (Avena sterilis [22]): 80% | Survival (Avena sterilis [23]): 20% | Survival (Avena sterilis [24]): 37% | Survival (Avena sterilis [25]): 63% | Survival (Avena sterilis [26]): 40% | Survival (Avena sterilis [27]): 33% | Survival (Avena sterilis [28]): 53% | Survival (Avena sterilis [29]): 27% | Survival (Avena sterilis [30]): 83% | Survival (Avena sterilis [31]): 50% | Survival (Avena sterilis [32]): 63% | Survival (Avena sterilis [33]): 53% | Survival (Avena sterilis [34]): 20% | Survival (Avena sterilis [35]): 20% | Survival (Avena sterilis [36]): 53% | Survival (Avena sterilis [37]): 60% | Survival (Avena sterilis [38]): 83% | Survival (Avena sterilis [39]): 97% | Survival (Avena sterilis [40]): 90% | Survival (Avena sterilis [41]): 60% | Survival (Avena sterilis [42]): 73% | Survival (Avena sterilis [43]): 60% | Survival (Avena sterilis [44]): 63% | Survival (Avena sterilis [45]): 80% | Survival (Avena sterilis [46]): 100% | Survival (Avena sterilis [47]): 77% | Survival (Avena sterilis [48]): 90% | Survival (Avena sterilis [49]): 80% | Survival (Avena sterilis [50]): 70% | Survival (Avena sterilis [51]): 40% | Survival (Avena sterilis [52]): 100% | Survival (Avena sterilis [53]): 93% | Survival (Avena sterilis [54]): 97% | Survival (Avena sterilis [55]): 87% | Survival (Avena sterilis [56]): 27% | Survival (Avena sterilis [57]): 40% | Survival (Avena sterilis [58]): 97%
